Where two headings read alike, the source gives them in different places. A value given as a limit tells only on which side of the number the result lay.

Assay [1] has as its system phosphorylation of Histone H3. In words: HeLa cell 1-hour phospho-histone assay. It counts as cell-based. The conditions noted are these: Homo sapiens, HeLa, 1 h, HeLa cells, 1 hour incubation, % of cells pHH3 positive; read-out: inhibitory activity (EC50) in the phospho-histone H3 assay. The protocol: HeLa cell 1-hour phospho-histone assay
The purpose of this assay is to test the inhibitory effect of Aurora compounds with respect to phosphorylation of Histone H3 in the cellular context. HeLa cells (9x10^4/well) are plated in black 96-well flat-bottom tissue culture plates and incubated for 40 hours prior to compound addition. Compounds are serially diluted in DMSO, followed by dilution into MEM containing […] HEPES; 10ul/well of diluted compounds are added to cells (0.5% DMSO final). Cells are incubated for 1 hour at 37 °C in 5% CO2. Cells are then fixed with 3.7% formaldehyde for 10 minutes, washed with wash buffer (1% goat serum and 0.1% Tween 20 in PBS), then permeabilized with 0.5% Triton X in PBS for 15 minutes. After washing with wash buffer, cells are incubated with primary antibody (Upstate #06-507 anti-phospho-histone (Ser 10) antibody (pHH3) for 1 hour at 10ug/ml. After 2 washes with wash buffer, cells are incubated with secondary antibody (Molecular Probes #A11034 goat anti-rabbit Alexa-488 for 1 hour at 1ug/ml + Hoechst 33342 nuclear dye at 1ug/ml (Molecular Probes). Cells are washed 2 times with wash buffer, and buffer replaced with PBS. Plates are scanned on the Cellomics Array Scan (6 fields, ~2000 cells/well) and % of cells that are pHH3 positive were calculated using the Cellomics algorithm.

Assay [2] has as its target T1, AuroraB (Homo sapiens, UniProt Q96GD4).
T1 construct: 20 µL of AuroraB FL His; His
Nature of the assay: AuroraB Homogeneous Time Resolved Fluorescent (HTRF) kinase assay. It counts as biochemical. Particulars: average, read-out: AurB_ _IC50_IP (Avg). The gist of the method: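 HTRF read-out: after EDTA stop and ~60 min with europium anti-phospho-H3 antibody and streptavidin-APC, 655/615 nm ratio reports phosphorylation. Reaction: 400 pM AuroraB FL His, 23 µM ATP (at Km(app)), 0.1 µM biotin-Histone H3 peptide, 50 mM HEPES pH 7.5, MgCl/MnCl, ~90 min.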

The target of assay [3] is T2, AuroraA-TPX2 (Homo sapiens, UniProt O14965).
T2 construct: 20 µL of AuroraA-TPX2 KD GST; GST
T2 sequence (O14965 133-383 limits assumed): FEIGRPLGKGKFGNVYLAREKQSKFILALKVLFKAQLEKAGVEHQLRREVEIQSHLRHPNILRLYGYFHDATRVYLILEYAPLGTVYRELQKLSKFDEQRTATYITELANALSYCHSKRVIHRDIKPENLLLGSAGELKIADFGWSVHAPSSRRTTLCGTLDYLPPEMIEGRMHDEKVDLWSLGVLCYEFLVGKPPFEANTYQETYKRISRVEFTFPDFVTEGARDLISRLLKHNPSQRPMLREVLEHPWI
T2 sequence (Q9ULW0 1-43 partner limits assumed): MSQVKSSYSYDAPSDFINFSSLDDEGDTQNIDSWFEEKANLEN
Nature of the assay: AuroraA-TPX2 Homogeneous Time Resolved Fluorescent (HTRF) kinase assay. It counts as biochemical. Particulars: average, read-out: AurA/TP X2_ IC50_IP (Avg). The gist of the method:
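HTRF read-out: europium anti-phosphoPLK antibody (0.02 nM) plus streptavidin-APC detect phosphorylated biotin-PLK after EDTA stop and overnight equilibration. Kinase step runs about 120 min with Aurora-A/TPX2, ATP and roughly 1 µM PLK peptide at pH 7.5 HEPES buffer with Mg2+ and DTT.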

The mark [4] stands for this setting: given as numbers, unit inferred.

T1 sequence (Q96GD4 whole entry): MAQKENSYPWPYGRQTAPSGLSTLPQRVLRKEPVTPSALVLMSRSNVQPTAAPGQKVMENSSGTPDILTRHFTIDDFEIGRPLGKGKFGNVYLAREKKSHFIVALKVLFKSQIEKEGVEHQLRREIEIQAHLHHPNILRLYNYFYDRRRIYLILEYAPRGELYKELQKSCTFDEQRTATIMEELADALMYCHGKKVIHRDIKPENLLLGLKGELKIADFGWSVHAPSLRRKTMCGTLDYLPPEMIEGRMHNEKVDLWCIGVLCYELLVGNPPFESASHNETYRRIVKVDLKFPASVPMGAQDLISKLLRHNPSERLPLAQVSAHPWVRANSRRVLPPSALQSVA

With `Nc1nccc(-c2cccnc2Oc2ccc(Nc3nnc(-c4ccsc4)c4ccccc34)cc2)n1` [Example 90, N-(4-((3-(2-amino-4-pyrimidinyl)-2-pyridinyl)oxy)phenyl)-4-(3-thienyl)-1-phthalazinamine], the EC50 in assay [1] is less than 1 µM.

Turning to `Cc1ccnn1-c1nnc(Nc2ccc(Oc3ncccc3-c3ccnc(N)n3)cc2)c2ccccc12` [compound 407, N-(4-((3-(2-amino-4-pyrimidinyl)-2-pyridinyl)oxy)phenyl)-4-(5-methyl-1H-pyrazol-1-yl)-1-phthalazinamine], the IC50 in assay [2] (given as class symbols) and in assay [3] (given as class symbols) was not above 0.1 µM throughout.

In the case of `Cc1ccn(-c2nnc(Nc3ccc(Oc4ncccc4-c4ccnc(N)n4)cc3)c3ccccc23)n1` [compound 408, N-(4-((3-(2-amino-4-pyrimidinyl)-2-pyridinyl)oxy)phenyl)-4-(3-methyl-1H-pyrazol-1-yl)-1-phthalazinamine], the IC50 in assay [2] (given as class symbols) and in assay [3] (given as class symbols) was not above 0.1 µM each time.

For the compound `Cc1ccnc(-c2nnc(Nc3ccc(Oc4ncccc4-c4ccnc(NCCCN5CCN(C)CC5)n4)cc3)c3ccccc23)c1` [compound 409, N-(4-((3-(2-((3-(4-methyl-1-piperazinyl)propyl)amino)-4-pyrimidinyl)-2-pyridinyl)oxy)phenyl)-4-(4-methyl-2-pyridinyl)-1-phthalazinamine], the IC50 was not above 0.1 µM in assay [2] (given as class symbols) and 0.1 to 0.5 µM in assay [3] (given as class symbols).

In the case of `COc1cccc(-c2nnc(Nc3ccc(Oc4ncccc4-c4ccnc(NCCCN5CCN(C)CC5)n4)cc3)c3ccccc23)n1` [compound 410, 4-(6-(methyloxy)-2-pyridinyl)-N-(4-((3-(2-((3-(4-methyl-1-piperazinyl)propyl)amino)-4-pyrimidinyl)-2-pyridinyl)oxy)phenyl)-1-phthalazinamine], the IC50 in assay [2] (given as class symbols) and in assay [3] (given as class symbols) was not above 0.1 µM in each case.

In the case of `C[C@H]1CN(CCCNc2nccc(-c3cccnc3Oc3ccc(Nc4nnc(-c5ccccc5)c5ccccc45)cc3)n2)CCN1` [compound 411, N-(4-((3-(2-((3-((3S)-3-methyl-1-piperazinyl)propyl)amino)-4-pyrimidinyl)-2-pyridinyl)oxy)phenyl)-4-phenyl-1-phthalazinamine], the IC50 in assay [2] (given as class symbols) and in assay [3] (given as class symbols) was not above 0.1 µM in each case.

As to `Cc1ccnc(-c2nnc(Nc3ccc(Oc4ncccc4-c4ccnc(NCCCN5CCOCC5)n4)cc3)c3ccccc23)c1` [compound 412, 4-(4-methyl-2-pyridinyl)-N-(4-((3-(2-((3-(4-morpholinyl)propyl)amino)-4-pyrimidinyl)-2-pyridinyl)oxy)phenyl)-1-phthalazinamine], the IC50 in assay [2] (given as class symbols) was not above 0.1 µM; in assay [3] (given as class symbols), 0.1 to 0.5 µM.

With `CCc1cc(-c2ccccc2)nnc1Nc1ccc(Oc2ncccc2-c2ccnc(NCCCN3CCN(C)CC3)n2)nc1` [compound 449, 4-ethyl-N-(6-((3-(2-((3-(4-methyl-1-piperazinyl)propyl)amino)-4-pyrimidinyl)-2-pyridinyl)oxy)-3-pyridinyl)-6-phenyl-3-pyridazinamine], the IC50 in assay [2] (given as class symbols) and in assay [3] (given as class symbols) was not above 0.1 µM throughout.

Consider `CCc1cc(-c2ccccc2)nnc1Nc1ccc(Oc2ncccc2-c2ccnc(NCCCN3CCCCC3)n2)nc1` [compound 450, 4-ethyl-6-phenyl-N-(6-((3-(2-((3-(1-piperidinyl)propyl)amino)-4-pyrimidinyl)-2-pyridinyl)oxy)-3-pyridinyl)-3-pyridazinamine], for which the IC50 is not above 0.1 µM in assay [2] (given as class symbols) and 0.5 to 2.5 µM in assay [3] (given as class symbols).

With `CCc1cc(-c2ccccc2)nnc1Nc1ccc(Oc2ncccc2-c2ccnc(NCCCN3CCNCC3)n2)nc1` [compound 451, 4-ethyl-6-phenyl-N-(6-((3-(2-((3-(1-piperazinyl)propyl)amino)-4-pyrimidinyl)-2-pyridinyl)oxy)-3-pyridinyl)-3-pyridazinamine], the IC50 was not above 0.1 µM in assay [2] (given as class symbols) and 0.1 to 0.5 µM in assay [3] (given as class symbols).

Consider `FC1CCCN(CCCNc2nccc(-c3cccnc3Oc3ccc(Nc4nnc(-c5ccccc5)c5ccccc45)cc3)n2)C1` (centres unmarked) [compound 452, N-(4-((3-(2-((3-(3-fluoro-1-ptperidinyl)propyl)amino)-4-pyrimidinyl)-2-pyridinyl)oxy)phenyl)-4-phenyl-1-phthalazinamine], for which the IC50 in assay [2] (given as class symbols) and in assay [3] (given as class symbols) was not above 0.1 µM throughout.

In the case of `FC1(F)CCCN(CCCNc2nccc(-c3cccnc3Oc3ccc(Nc4nnc(-c5ccccc5)c5ccccc45)cc3)n2)C1` [compound 453, N-(4-((3-(2-((3-(3,3-difluoro-1-piperidinyl)propyl)amino)-4-pyrimidinyl)-2-pyridinyl)oxy)phenyl)-4-phenyl-1-phthalazinamine], the IC50 in assay [2] (given as class symbols) and in assay [3] (given as class symbols) was not above 0.1 µM each time.

As to `COc1cccc(-c2nnc(Nc3ccc(Oc4ncccc4-c4ccnc(NCCCN5CCCCC5)n4)cc3)c3ccccc23)n1` [compound 454, 4-(6-(methyloxy)-2-pyridinyl)-N-(4-((3-(2-((3-(1-piperidinyl)propyl)amino)-4-pyrimidinyl)-2-pyridinyl)oxy)phenyl)-1-phthalazinamine], the IC50 in assay [2] (given as class symbols) and in assay [3] (given as class symbols) was not above 0.1 µM throughout.

Take `COc1cccc(-c2nnc(Nc3ccc(Oc4ncccc4-c4ccnc(NCCCN5CCCC5)n4)cc3)c3ccccc23)n1` [compound 455, 4-(6-(methyloxy)-2-pyridinyl)-N-(4-((3-(2-((3-(1-pyrrolidinyl)propyl)amino)-4-pyrimidinyl)-2-pyridinyl)oxy)phenyl)-1-phthalazinamine]: the IC50 in assay [2] (given as class symbols) and in assay [3] (given as class symbols) was not above 0.1 µM each time.

On to `CCc1cc(-c2ccccc2)nnc1Nc1ccc(Oc2ncccc2-c2ccnc(NCCCN3CCN(C)CC3)n2)cc1` [compound 456, 4-ethyl-N-(4-((3-(2-((3-(4-methyl-1-piperazinyl)propyl)amino)-4-pyrimidinyl)-2-pyridinyl)oxy)phenyl)-6-phenyl-3-pyridazinamine], for which the IC50 in assay [2] (given as class symbols) and in assay [3] (given as class symbols) was not above 0.1 µM throughout.

Take `CCc1cc(-c2ccccc2)nnc1Nc1ccc(Oc2ncccc2-c2ccnc(NCCCN3CCNCC3)n2)cc1` [compound 457, 4-ethyl-6-phenyl-N-(4-((3-(2-((3-(1-piperazinyl)propyl)amino)-4-pyrimidinyl)-2-pyridinyl)oxy)phenyl)-3-pyridazinamine]: the IC50 in assay [2] (given as class symbols) and in assay [3] (given as class symbols) was not above 0.1 µM each time.

Consider `CCc1cc(-c2ccccc2)nnc1Nc1ccc(Oc2ncccc2-c2ccnc(NCCCN3CCCCC3)n2)cc1` [compound 458, 4-ethyl-6-phenyl-N-(4-((3-(2-((3-(1-piperidinyl)propyl)amino)-4-pyrimidinyl)-2-pyridinyl)oxy)phenyl)-3-pyridazinamine], for which the IC50 in assay [2] (given as class symbols) and in assay [3] (given as class symbols) was not above 0.1 µM in each case.

In the case of `CCc1cc(-c2ccccc2)nnc1Nc1ccc(Oc2ncccc2-c2ccnc(NCCCN3CCCC3)n2)cc1` [compound 459, 4-ethyl-6-phenyl-N-(4-((3-(2-((3-(1-pyrrolidinyl)propyl)amino)-4-pyrimidinyl)-2-pyridinyl)oxy)phenyl)-3-pyridazinamine], the IC50 was not above 0.1 µM in assay [2] (given as class symbols) and 0.1 to 0.5 µM in assay [3] (given as class symbols).

As to `COc1cccc(-c2nnc(Nc3ccc(Oc4ncccc4-c4ccnc(NCCCN5CCNCC5)n4)cc3)c3ccccc23)n1` [compound 460, 4-(6-(methyloxy)-2-pyridinyl)-N-(4-((3-(2-((3-(1-piperazinyl)propyl)amino)-4-pyrimidinyl)-2-pyridinyl)oxy)phenyl)-1-phthalazinamine], the IC50 in assay [2] (given as class symbols) and in assay [3] (given as class symbols) was not above 0.1 µM each time.

With “N-(4-((3-(2-amino-4-pyrimidinyl)-2-pyridinyl)oxy)phenyl)-4-(6-methyl-2-pyridinyl)-1-phthalazinamine [compound 271]”, the results for the IC50 in assay [2] (setting [4]) and in assay [3] (setting [4]) were 0.001 µM and 0.0243 µM, respectively.

Turning to “N-(4-((3-(2-amino-4-pyrimidinyl)-2-pyridinyl)oxy)phenyl)-4-ethyl-6-phenyl-3-pyridazinamine [compound 435]”, the IC50 in assay [2] (given as class symbols) and in assay [3] (given as class symbols) was not above 0.1 µM throughout.

The values are drawn from patent EP1984353B1, “AURORA KINASE MODULATORS AND METHOD OF USE” (Amgen, Inc, priority 2006, dated 2007).
